# Measurements taken from US11564912B2, “Methods for treating irritable bowel syndrome (IBS)” (Salix Pharmaceuticals, Inc., priority 2008, dated 2023).
# Tested on: subjects with IBS
# Assay: Combined analysis of the two studies of rifaximin 550 mg TID
# Type: in vivo, human
# From the text: A measure of efficacy is based on subjects' answers to the Weekly Subject Global Assessment (SGA) questions over the study duration in relation to their IBS symptoms.
substance,measurement,setting,value
"(2S,16Z,18E,20S,21S,22R, 23R,24R,25S,26S,27S,28E)-5,6,21,23,25 Pentahydroxy-27-methoxy -2,4,11,16,20,22,24,26-octamethyl-2,7-(epoxypentadeca-(1,11,13)trienimino)benzofuro (4,5-e) pyrido(1,2,-a) benzimidazole-1,15(2H)-dione,25-acetate [Rifaximin]","Abdominal Pain reduction of 2 point in mean, responders",at least 2 weeks during PEP,25%
same,"Overall reduction of mean weekly abdominal pain by >=25%, responders",at least 2 weeks during PEP,57%
same,"Overall reduction of mean weekly abdominal pain by >=50%, responders",at least 2 weeks during PEP,35%
same,"Overall reduction of mean weekly abdominal pain by >=75%, responders",at least 2 weeks during PEP,14%
same,"Overall reduction of median weekly abdominal pain by >=25%, responders",at least 2 weeks during PEP,62%
same,"Overall reduction of median weekly abdominal pain by >=50%, responders",at least 2 weeks during PEP,44%
same,"Overall reduction of median weekly abdominal pain by >=75%, responders",at least 2 weeks during PEP,21%
same,"Abdominal pain reduction of 1 point in mean, responders",weekly mean vs baseline for at least 2 weeks during PEP,52%
